In publication PMC5712521, “Dendrogenin A drives LXR to trigger lethal autophagy in cancers” (Nature Communications, 2017):

Columns and labels:
SKMEL-28 cells [1] = test: RT-qPCR of LXR-responsive genes; assay type: cell-based, human; conditions: 8 h, 2.5 µM DDA, 10 µM 22(R)HC, 1 µM GW, 100 nM TO, vs vehicle
Procedure: Total RNA was extracted from tumor cells or MEFs using an RNA Extraction kit (Qiagen) or Trizol (Invitrogen), respectively, and was quantified with NanoDrop. Complementary DNA (cDNA) synthesis was performed with 1 μg RNA iScript Reverse Transcriptase (Bio-Rad). 25 ng cDNA was amplified using SyBR Supermix (Bio-Rad). RNA expression of the different genes of interest (Supplementary Tables 1, 2) were determined using the ΔΔCT method, where the difference in the threshold cycle (ΔCT) values of the target gene and the housekeeping gene for each sample was normalized to the ΔCT value of the untreated sample.
Supplementary Fig. 4. a R egulat ion of LXR-responsive genes b y D DA and other k nown LXR
ligands in B16F10 and SKMEL- 28 cells transfected with s iRN A targeting LXRβ ( siLXRβ) or
with contro l siRN A scram ble (siSC). Cells were treated for 8 h with either solvent vehicle, 2.5
µM DD A, 10 µM 22(R) hydrox ycholesterol (22(R)HC), 1 µM GW 3965 (GW ) or 100 nM
T O901317 (T O). […]

B16F10 cells = test: DDA-induced cytotoxicity (cell death); assay type: cell-based; conditions: B16F10; 5 µM 22(R)HC, 0.5 µM TO, 1 µM GW
Procedure: (§1) Melanoma cells were seeded into 6-well plates at 60,000 cells per well and AML cells at 250,000 cells/ml. The cells were then treated with control solvent vehicle (1/1000 ethanol in water) or DDA. Where indicated, treated cells were incubated in the presence or absence of each inhibitor for time shown. Cell death was determined by the trypan blue exclusion assay. Cells were scraped and resuspended in trypan blue solution (0.25% (w/v) in PBS) and counted in a Malassez cell under light microscopy. Cell viability was then quantified by counting viable (trypan blue-negative) and dead cells (trypan blue-positive).
(§2) Supplementary Fig. 1. a DDA inhibited m elanom a colony form ation. Melanom a cells were […]
(§3) a 0.5% solution of crystal violet in water and analyzed by microscopy. Images are representative of 5 independent experiments. b Evaluation of DDA-induced cytotoxicity (cytotox) and clonogenicity (clono) inhibition in a subset of human (H) and mouse (M) m elanom a cell lines. T he BRaf status in m elanom a cells lines is shown. […]

SKMEL-28 cells [2] = test: DDA-induced cytotoxicity (cell death); assay type: cell-based; conditions: SKMEL-28; 5 µM 22(R)HC, 0.5 µM TO, 1 µM GW
Procedure: as §1, §2, §3

SKMEL-28 cells [3] = test: Sterol analysis by GC/MS; assay type: cell-based, human; conditions: SKMEL-28, 24 h; 10 µM 22(R)HC, 1 µM GW, 100 nM TO; GC/MS
Procedure: Sterols in cell homogenates were extracted with a solvent mixture containing chloroform/methanol 2/1 (v/v) spiked with epicoprostanol as the internal standard. Lipids were partitioned in chloroform after the addition of saline and saponified by methanolic potassium hydroxide (0.5 N, 60 °C, 15 min). The fatty acids released were methylated with BF3-methanol (12%, 60 °C, 15 min) to not interfere with the chromatography of sterols. The sterols were re-extracted in hexane and silylated, as described previously. The trimethylsilylether derivatives of the sterols were separated by gas chromatography (GC) (Hewlett–Packard 6890 series) in a medium polarity capillary column RTX-65, (65% diphenyl 35% dimethyl polysiloxane, length 30 m, diameter 0.32 mm, film thickness 0.25 μm (Restesk, Evry, France)). The mass spectrometer (Agilent 5975 inert XL) in series with the GC was set up for the detection of positive ions. Ions were produced in the electron impact mode at 70 eV. Sterols were identified by the fragmentogram in the scanning mode and quantified by selective monitoring of the specific ions after normalization with the internal standard epicoprostanol and calibration with weighed standards. […]
Quantification of sterols ac cum ulation in SKMEL- 2 8 c ells either expressing LXRβ (shCT L) or with LXRβ (sh3 or sh4LXR β) k nock ed down after 24 h treatm ent with 2.5 µ M DD A or solvent vehicle. Anal yses were perform ed by GC/MS. f Quantification of sterols accumulated in m elanom a cells after 24 h treatm ent with 10 µM 22(R) HC, 1 µ M GW , 100 nM T O or solvent […]
vehicle. […]

O=C(O)Cc1cccc(OCCCN(Cc2cccc(C(F)(F)F)c2Cl)CC(c2ccccc2)c2ccccc2)c1 [GW, GW3965]
ABCA1 mRNA (SKMEL-28 cells [1]; SKMEL-28, siCT): 15.1±2 fold
ABCG1 mRNA (SKMEL-28 cells [1]; SKMEL-28, siCT): 3.2±0.5 fold
ABCG5 mRNA (SKMEL-28 cells [1]; SKMEL-28, siCT): 3.1±0.5 fold
ABCG8 mRNA (SKMEL-28 cells [1]; SKMEL-28, siCT): 1.5±0.1 fold
LC3A mRNA (SKMEL-28 cells [1]; SKMEL-28, siCT): 0.8±0.2 fold
LC3B mRNA (SKMEL-28 cells [1]; SKMEL-28, siCT): 0.9±0.1 fold
LDLR mRNA (SKMEL-28 cells [1]; SKMEL-28, siCT): 1.0±0.2 fold
NOR1 mRNA (SKMEL-28 cells [1]; SKMEL-28, siCT): 1.5±0.1 fold
Nur77 mRNA (SKMEL-28 cells [1]; SKMEL-28, siCT): 0.7±0.2 fold
SCD1 mRNA (SKMEL-28 cells [1]; SKMEL-28, siCT): 1.6±0.1 fold
SREBP1 mRNA (SKMEL-28 cells [1]; SKMEL-28, siCT): 2.6±0.3 fold
SULT2B1b mRNA (SKMEL-28 cells [1]; SKMEL-28, siCT): 2.8±0.1 fold
ABCA1 mRNA (SKMEL-28 cells [1]; SKMEL-28, siLXRβ): 2.2±0.3 fold
ABCG1 mRNA (SKMEL-28 cells [1]; SKMEL-28, siLXRβ): 1.2±0.1 fold
ABCG5 mRNA (SKMEL-28 cells [1]; SKMEL-28, siLXRβ): 1.1±0.1 fold
ABCG8 mRNA (SKMEL-28 cells [1]; SKMEL-28, siLXRβ): 0.8±0.1 fold
LC3A mRNA (SKMEL-28 cells [1]; SKMEL-28, siLXRβ): 1.0±0.3 fold
LC3B mRNA (SKMEL-28 cells [1]; SKMEL-28, siLXRβ): 1.1±0.3 fold
LDLR mRNA (SKMEL-28 cells [1]; SKMEL-28, siLXRβ): 0.9±0.1 fold
NOR1 mRNA (SKMEL-28 cells [1]; SKMEL-28, siLXRβ): 0.8±0.1 fold
Nur77 mRNA (SKMEL-28 cells [1]; SKMEL-28, siLXRβ): 0.9±0.2 fold
SCD1 mRNA (SKMEL-28 cells [1]; SKMEL-28, siLXRβ): 1.1±0.1 fold
SREBP1 mRNA (SKMEL-28 cells [1]; SKMEL-28, siLXRβ): 1.5±0.2 fold
SULT2B1b mRNA (SKMEL-28 cells [1]; SKMEL-28, siLXRβ): 1.1±0.2 fold
cell death (B16F10 cells): no impact on cell death
cell death (SKMEL-28 cells [2]): no impact on cell death
Sterol amount/total sterol: 8-DHC (SKMEL-28 cells [3]): 0.07± 0.01
Sterol amount/total sterol: zymostenol (SKMEL-28 cells [3]): 0.29± 0.09
